According to PubChem BioAssay AID1963973 (Molecular Pharmacology Branch, DTP, NCI, 2024):

Test system: 883617-216-R-J1-PDC tumor spheroids, viability
Experiment: Anticancer human tumor 883617-216-R-J1-PDC patient-derived bladder carcinoma cell line growth inhibition [PI3K]
Conditions: spheroids with HUVEC and MSC; for IC50: curve of first compound; for viability, T/C: stronger effect = lower value; active means viability on the fitted dose curve at most 10% of control; inactive means the rest
Excerpt: Combinatorial screen of targeted agents with the PI3K inhibitors inavolisib, alpelisib, duvelisib, and copanlisib in multi-cell type tumor spheroids
A high-throughput screen of multi-cell type tumor spheroids was designed to identify active combinations of targeted small molecules and PI3K pathway inhibitors. Complex spheroids include a stromal component modeled by human endothelial cells (HUVEC) and fibroblasts modeled by human mesenchymal stem cells (MSCs). The concentration ranges selected for each drug and investigational agent were based upon clinically achievable concentrations if the clinical Cmax of the agent was known.
Compounds. The drugs and investigational agents: inavolisib (NSC800729), alpelisib (NSC765974), duvelisib (NSC772469), copanlisib (NSC816437), ipatasertib (NSC767898), afuresertib (NSC778305), talazoparib (NSC767125), sapanisertib (NSC764658), selumetinib (NSC741078), tovorafenib (DAY101, NSC766906), vemurafenib (NSC761431), ravoxertinib (NSC781343), sotorasib (NSC818433), MRTX1133 (NSC 836407), abemaciclib (NSC 768073), palbociclib (NSC758247), venetoclax (NSC 766270), SY5609 (NSC837396), enzalutamide (NSC755605), and darolutamide (NSC825331), were obtained from the National Cancer Institute (NCI) Developmental Therapeutics Program Chemical Repository. The FDA-approved anticancer drug set is available from the NCI Developmental Therapeutics Program. […] The stock solutions were prepared in dimethyl sulfoxide (DMSO, Sigma-Aldrich, St. Louis, MO, cat. D2650) at 800-fold the tested concentration and stored at -70 degrees C prior to their use. All drugs and investigational agents were tested over a range starting from a high concentration at or near the clinical Cmax and decreasing in half-log increments. If the clinical Cmax for an agent had not been determined, the highest concentration tested was 10 microM.
Cell Culture. All cells were maintained in an incubator at 37 degrees C and 5% CO2 with 95% humidity. The PDC lines were cultured according to standard operating procedures established by the NCI PDMR (https://pdmr.cancer.gov/sops/default.htm). All PDCs were thawed and cultured in Matrigel-coated flasks prepared with a working solution of 1X Ham's F-12 nutrient mix, without supplementation (Invitrogen, Waltham, MA, cat. 11765054), 100 U/mL penicillin-streptomycin (Invitrogen, cat. 15140122), and 2.5% Matrigel (Corning Inc., Corning, NY, cat. 354248) for the first three passages. The 354836-022-R-J1-PDC, 475296-252-R-J1-PDC, and 997726-040-R-J2-PDC lines were cultured in 6A media, which includes advanced DMEM/F-12 (Thermo Fisher Scientific, cat. 12634028), 10 mM HEPES (Thermo Fisher Scientific, cat. 15630080), 1X GlutaMAX supplement (Thermo Fisher Scientific, cat. 35050061), 0.1 mg/mL primocin (InvivoGen, San Diego, CA, cat. ant-pm-2), 10% defined fetal bovine serum, heat inactivated (HyClone Laboratories Inc., Logan, UT, cat. SH30070.03HI), 50% L-WRN conditioned media (ATCC, cat. CRL-3276), 1.25 mM N-Acetyl-L-cysteine (Sigma-Aldrich, cat. A9165), 10 mM nicotinamide (Sigma-Aldrich, cat. N0636), 1X B-27 supplement (Thermo Fisher Scientific, cat. 17504044), 1X N-2 supplement (Thermo Fisher Scientific, cat. 17502048), and 10 microM Y-27632 dihydrochloride (Tocris Bioscience, Bristol, United Kingdom, cat. 1254). The 624824-186-R-J2-PDC line was cultured in 6C/Colon 1B media, which includes all 6A media components plus 50 ng/mL human EGF recombinant protein (Thermo Fisher Scientific, cat. PHG0311). […]

[1] = second compound 0.00316 µM, first compound 0.0316 µM
[2] = second compound 0.00316 µM, first compound 0.1 µM
[3] = second compound 0.01 µM, first compound 0.0316 µM
[4] = second compound 0.01 µM, first compound 0.1 µM
[5] = second compound 0.0316 µM, first compound 0.0316 µM
[6] = second compound 0.0316 µM, first compound 0.1 µM
[7] = second compound 0.1 µM, first compound 0.0316 µM
[8] = second compound 0.1 µM, first compound 0.1 µM
[9] = second compound 0.316 µM, first compound 0.0316 µM
[10] = second compound 0.316 µM, first compound 0.1 µM
[11] = second compound 1 µM, first compound 0.0316 µM
[12] = second compound 1 µM, first compound 0.1 µM
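Further: spheroids exposed to agents for 7 days before the viability read.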

CC(C)n1nc(-c2ccc3oc(N)nc3c2)c2c(N)ncnc21 + CC(Nc1ccc2c(c1)OCCn1cc(N3C(=O)OCC3C(F)F)nc1-2)C(N)=O
7.16 nM: IC50 (second compound 0.0316 µM)
inactive: viability, T/C (second compound 0.00316 µM, first compound 0.000316 µM) 96.5% | viability, T/C (second compound 0.00316 µM, first compound 0.001 µM) 88.1% | viability, T/C (second compound 0.00316 µM, first compound 0.00316 µM) 75.4% | viability, T/C (second compound 0.00316 µM, first compound 0.01 µM) 72.1% | viability, T/C [1] 50.5% | viability, T/C [2] 16.6% | viability, T/C (second compound 0.01 µM, first compound 0.000316 µM) 85.5% | viability, T/C (second compound 0.01 µM, first compound 0.001 µM) 76.4% | viability, T/C (second compound 0.01 µM, first compound 0.00316 µM) 75% | viability, T/C (second compound 0.01 µM, first compound 0.01 µM) 69.8% | viability, T/C [3] 44.2% | viability, T/C [4] 19.6% | viability, T/C (second compound 0.0316 µM, first compound 0.000316 µM) 61.9% | viability, T/C (second compound 0.0316 µM, first compound 0.001 µM) 60.8% | viability, T/C (second compound 0.0316 µM, first compound 0.00316 µM) 54.4% | viability, T/C (second compound 0.0316 µM, first compound 0.01 µM) 49% | viability, T/C [5] 31.4% | viability, T/C [6] 16.6% | viability, T/C (second compound 0.1 µM, first compound 0.000316 µM) 52.2% | viability, T/C (second compound 0.1 µM, first compound 0.001 µM) 41.2% | viability, T/C (second compound 0.1 µM, first compound 0.00316 µM) 37.5% | viability, T/C (second compound 0.1 µM, first compound 0.01 µM) 32% | viability, T/C [7] 22.1% | viability, T/C [8] 11.5% | viability, T/C (second compound 0.316 µM, first compound 0.000316 µM) 31.9% | viability, T/C (second compound 0.316 µM, first compound 0.001 µM) 20.6% | viability, T/C (second compound 0.316 µM, first compound 0.00316 µM) 24.8% | viability, T/C (second compound 0.316 µM, first compound 0.01 µM) 15.8% | viability, T/C [9] 14.4% | viability, T/C [10] 10.2% | viability, T/C (second compound 1 µM, first compound 0.000316 µM) 17.4% | viability, T/C (second compound 1 µM, first compound 0.001 µM) 17.7% | viability, T/C (second compound 1 µM, first compound 0.00316 µM) 13.9% | viability, T/C (second compound 1 µM, first compound 0.01 µM) 11.2%
< 0.316 nM: IC50 (second compound 0.316 µM) | IC50 (second compound 1 µM)
30 nM: IC50 (second compound 0.00316 µM)
24.6 nM: IC50 (second compound 0.01 µM)
0.331 nM: IC50 (second compound 0.1 µM)
active: viability, T/C [11] 11.5% | viability, T/C [12] 5.87%

CCCS(=O)(=O)Nc1ccc(F)c(C(=O)c2c[nH]c3ncc(-c4ccc(Cl)cc4)cc23)c1F + CC(Nc1ccc2c(c1)OCCn1cc(N3C(=O)OCC3C(F)F)nc1-2)C(N)=O
4590 nM: IC50 (second compound 0.00316 µM)
active: viability, T/C (second compound 0.00316 µM, first compound 10 µM) 8.07% | viability, T/C (second compound 0.0316 µM, first compound 10 µM) 9.98%
4710 nM: IC50 (second compound 0.01 µM)
inactive: viability, T/C [1] 91.2% | viability, T/C [2] 90.9% | viability, T/C (second compound 0.00316 µM, first compound 0.316 µM) 89% | viability, T/C (second compound 0.00316 µM, first compound 1 µM) 100% | viability, T/C (second compound 0.00316 µM, first compound 3.16 µM) 70.2% | viability, T/C [3] 87.3% | viability, T/C [4] 90% | viability, T/C (second compound 0.01 µM, first compound 0.316 µM) 89.5% | viability, T/C (second compound 0.01 µM, first compound 1 µM) 93.9% | viability, T/C (second compound 0.01 µM, first compound 3.16 µM) 70.3% | viability, T/C (second compound 0.01 µM, first compound 10 µM) 11.9% | viability, T/C [5] 68.5% | viability, T/C [6] 64.3% | viability, T/C (second compound 0.0316 µM, first compound 0.316 µM) 64.4% | viability, T/C (second compound 0.0316 µM, first compound 1 µM) 66.8% | viability, T/C (second compound 0.0316 µM, first compound 3.16 µM) 63.7% | viability, T/C [7] 36.1% | viability, T/C [8] 42.6% | viability, T/C (second compound 0.1 µM, first compound 0.316 µM) 43.9% | viability, T/C (second compound 0.1 µM, first compound 1 µM) 48.2% | viability, T/C (second compound 0.1 µM, first compound 3.16 µM) 38.7% | viability, T/C (second compound 0.1 µM, first compound 10 µM) 12.2% | viability, T/C [9] 29% | viability, T/C [10] 23.8% | viability, T/C (second compound 0.316 µM, first compound 0.316 µM) 28.5% | viability, T/C (second compound 0.316 µM, first compound 1 µM) 28.2% | viability, T/C (second compound 0.316 µM, first compound 3.16 µM) 26.6% | viability, T/C (second compound 0.316 µM, first compound 10 µM) 11% | viability, T/C [11] 15.2% | viability, T/C [12] 15% | viability, T/C (second compound 1 µM, first compound 0.316 µM) 17% | viability, T/C (second compound 1 µM, first compound 1 µM) 23% | viability, T/C (second compound 1 µM, first compound 3.16 µM) 20.7% | viability, T/C (second compound 1 µM, first compound 10 µM) 8.33%
4240 nM: IC50 (second compound 0.0316 µM)
< 31.6 nM: IC50 (second compound 0.1 µM) | IC50 (second compound 0.316 µM) | IC50 (second compound 1 µM)
